One may read the Ki as the dissociation constant of the complex between target and ligand, obtained from inhibition or displacement.

Type in all cases: biochemical
In one assay the target is T1, JAK3 (Homo sapiens, UniProt P52333).
T1 construct: made in house; host or cells: SF9 insect cells (baculovirus)
In words: JAK3 inhibition (Table 4). The note with it: read-out: JAK3 Ki.

In another assay the target is T2, TYK2 (Homo sapiens, UniProt P29597).
T2 construct: made in house; host or cells: SF9 insect cells (baculovirus)
T2 sequence (P29597 873-1187): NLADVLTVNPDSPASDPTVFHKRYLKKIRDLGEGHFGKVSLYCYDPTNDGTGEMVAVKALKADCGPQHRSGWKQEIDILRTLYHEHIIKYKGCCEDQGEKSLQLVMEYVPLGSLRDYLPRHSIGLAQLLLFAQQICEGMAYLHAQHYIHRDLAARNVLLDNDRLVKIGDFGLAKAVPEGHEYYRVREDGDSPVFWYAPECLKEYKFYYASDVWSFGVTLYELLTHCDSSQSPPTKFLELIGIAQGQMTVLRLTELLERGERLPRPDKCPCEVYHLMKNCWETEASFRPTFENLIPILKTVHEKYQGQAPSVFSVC
In words: TYK2 inhibition (Table 4).

The target of the next assay is T3, JAK2 (Homo sapiens, UniProt O60674).
T3 construct: made in house; host or cells: SF9 insect cells (baculovirus)
In words: JAK2 inhibition (Table 4). The note with it: read-out: JAK2 Ki.

A further assay concerns the target T4, JAK1 (Homo sapiens, UniProt P23458).
T4 construct: made in house; host or cells: SF9 insect cells (baculovirus)
Nature of the assay: JAK1 inhibition (Table 4). The note with it: read-out: JAK1 Ki.

T4 sequence (P23458 852-1154): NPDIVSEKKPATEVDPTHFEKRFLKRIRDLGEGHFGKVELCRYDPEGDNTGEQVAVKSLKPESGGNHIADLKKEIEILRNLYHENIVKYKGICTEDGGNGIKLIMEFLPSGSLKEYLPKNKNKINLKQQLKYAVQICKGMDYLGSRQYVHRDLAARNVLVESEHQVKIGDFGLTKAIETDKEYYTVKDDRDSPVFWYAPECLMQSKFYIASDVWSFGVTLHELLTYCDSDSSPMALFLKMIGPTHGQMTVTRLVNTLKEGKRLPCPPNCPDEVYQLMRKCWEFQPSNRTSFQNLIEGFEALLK
T1 sequence (P52333 783-1124): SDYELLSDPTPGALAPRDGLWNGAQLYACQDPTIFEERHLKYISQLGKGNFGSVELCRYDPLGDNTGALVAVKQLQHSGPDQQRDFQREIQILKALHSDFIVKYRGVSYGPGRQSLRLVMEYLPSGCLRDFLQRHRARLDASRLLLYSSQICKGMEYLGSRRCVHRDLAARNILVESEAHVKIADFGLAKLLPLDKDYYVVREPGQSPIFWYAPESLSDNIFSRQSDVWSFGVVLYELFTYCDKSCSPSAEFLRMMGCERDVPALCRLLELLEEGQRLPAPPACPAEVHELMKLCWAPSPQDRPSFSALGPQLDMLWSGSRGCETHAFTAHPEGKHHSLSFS
T3 sequence (O60674 812-1132): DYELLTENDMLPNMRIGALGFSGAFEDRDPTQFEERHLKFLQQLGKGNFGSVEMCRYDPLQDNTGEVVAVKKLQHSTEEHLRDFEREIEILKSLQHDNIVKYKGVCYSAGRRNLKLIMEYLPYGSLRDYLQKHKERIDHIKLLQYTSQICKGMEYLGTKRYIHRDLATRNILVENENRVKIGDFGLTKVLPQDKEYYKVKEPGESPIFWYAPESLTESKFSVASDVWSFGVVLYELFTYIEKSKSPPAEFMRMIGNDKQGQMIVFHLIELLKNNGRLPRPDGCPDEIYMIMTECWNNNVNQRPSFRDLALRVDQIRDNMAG

For the compound `NC1CCCC(n2cnc3cnc4[nH]ccc4c32)C1` (single isomer, unassigned) [Example 365, 3-(6H-1,3,5,6-Tetraaza-as-indacen-1-yl)-cyclohexylamine], the Ki was 331 nM on JAK3, 186 nM at TYK2, 113 nM at JAK2 and 24.1 nM at JAK1.

On to `NC1CCCC(n2cnc3cnc4[nH]ccc4c32)C1` (single isomer, unassigned) [Example 366, 3-(6H-1,3,5,6-Tetraaza-as-indacen-1-yl)-cyclohexylamine], for which the Ki at JAK3 amounted to 381 nM; on TYK2, 299 nM; at JAK2, 69.8 nM; on JAK1, 45.9 nM.

For the compound `NC1CCCC(n2cnc3cnc4[nH]ccc4c32)C1` (single isomer, unassigned) [Example 367, 3-(6H-1,3,5,6-Tetraaza-as-indacen-1-yl)-cyclohexylamine], the Ki on JAK3 amounted to 453 nM; on TYK2, 157 nM; at JAK2 it was 90.4 nM; at JAK1, 42.2 nM.

`NC1CCCC(n2cnc3cnc4[nH]ccc4c32)C1` (single isomer, unassigned) [Example 368, 3-(6H-1,3,5,6-Tetraaza-as-indacen-1-yl)-cyclohexylamine]: the Ki was found to be 419 nM on JAK3, 130 nM on TYK2, 19.3 nM at JAK2 and 27.8 nM at JAK1.

As to `CC(C1CCCO1)n1cnc2cnc3[nH]ccc3c21` (single isomer, unassigned) [Example 417, 1-[1-(Tetrahydro-furan-2-yl)-ethyl]-1,6-dihydro-1,3,5,6-tetraaza-as-indacene], the Ki amounted to 43.1 nM on JAK3, 341 nM on TYK2, 74.1 nM on JAK2 and 89.3 nM at JAK1.

`CC(C1CCCO1)n1cnc2cnc3[nH]ccc3c21` (single isomer, unassigned) [Example 418, 1-[1-(Tetrahydro-furan-2-yl)-ethyl]-1,6-dihydro-1,3,5,6-tetraaza-as-indacene]: the Ki on JAK3 is 33.5 nM; at TYK2 it was 173 nM; on JAK2, 29.9 nM; at JAK1 it was 34.8 nM.

For `Cc1nc2cnc3[nH]ccc3c2n1C(C)C1CCCO1` (single isomer, unassigned) [Example 426, 2-Methyl-1-[1-(tetrahydro-furan-2-yl)-ethyl]-1,6-dihydro-1,3,5,6-tetraaza-as-indacene], the Ki on JAK3 came to 26.2 nM; on TYK2 it was 335 nM; at JAK2, 56.7 nM; on JAK1 it was 59.6 nM.

With `c1cc2c(ncc3nnn(C4CCCOC4)c32)[nH]1` (single isomer, unassigned) [Example 459, 1-(Tetrahydro-pyran-3-yl)-1,6-dihydro-1,2,3,5,6-pentaaza-as-indacene], the Ki was found to be 282 nM on JAK3, 127 nM at TYK2, 59.9 nM on JAK2 and 34 nM at JAK1.

For `c1cc2c(ncc3nnn(C4CCCOC4)c32)[nH]1` (single isomer, unassigned) [Example 460, 1-(Tetrahydro-pyran-3-yl)-1,6-dihydro-1,2,3,5,6-pentaaza-as-indacene], the Ki at JAK3 was determined as 313 nM; at TYK2 it was 76.5 nM; on JAK2, 17.3 nM; at JAK1, 8.36 nM.

With `C[C@H](O)c1nc2cnc3[nH]ccc3c2n1C1CCCOC1` (single isomer, unassigned) [Example 461], the Ki at JAK3 is 1180 nM; at TYK2, 1580 nM; at JAK2, 1390 nM; at JAK1, 354 nM.

Turning to `C[C@H](O)c1nc2cnc3[nH]ccc3c2n1C1CCCOC1` (single isomer, unassigned) [Example 462], the Ki stood at 1160 nM on JAK3, 1370 nM on TYK2, 538 nM at JAK2 and 90 nM on JAK1.

In the case of `OCc1nc2cnc3[nH]ccc3c2n1C1CCCOC1` (single isomer, unassigned) [Example 463, [1-(Tetrahydro-pyran-3-yl)-1,6-dihydro-1,3,5,6-tetraaza-as-indacen-2-yl]-methanol], the Ki at JAK3 amounted to 191 nM; at TYK2, 55.5 nM; at JAK2, 74.9 nM; on JAK1, 12.2 nM.

For the compound `OCc1nc2cnc3[nH]ccc3c2n1C1CCCOC1` (single isomer, unassigned) [Example 464, [1-(Tetrahydro-pyran-3-yl)-1,6-dihydro-1,3,5,6-tetraaza-as-indacen-2-yl]-methanol], the inhibitory constant (Ki) on JAK3 was found to be 412 nM; on TYK2, 187 nM; on JAK2, 224 nM; on JAK1 it was 56.9 nM.

Regarding `c1cc2c(ncc3ncn(C4CCCOC4)c32)[nH]1` (single isomer, unassigned) [Example 465, 1-(Tetrahydro-pyran-3-yl)-1,6-dihydro-1,3,5,6-tetraaza-as-indacene], the Ki at JAK3 came to 50.8 nM; at TYK2, 70.5 nM; at JAK2, 49.9 nM; on JAK1, 23.5 nM.

With `c1cc2c(ncc3ncn(C4CCCOC4)c32)[nH]1` (single isomer, unassigned) [Example 466, 1-(Tetrahydro-pyran-3-yl)-1,6-dihydro-1,3,5,6-tetraaza-as-indacene], the Ki at JAK3 was determined as 75.6 nM; at TYK2 it was 61.8 nM; on JAK2, 24.6 nM; at JAK1 it was 9.66 nM.

As for `CC(C)(C)OC(=O)NC1CCCC(n2cnc3cnc4[nH]ccc4c32)C1` (single isomer, unassigned) [Example 474, [3-(6H-1,3,5,6-Tetraaza-as-indacen-1-yl)-cyclohexyl]-carbamic acid tert-butyl ester], the inhibition constant Ki on JAK3 came out at 19.6 nM; on TYK2, 47.1 nM; at JAK2, 4.4 nM; on JAK1, 2.07 nM.

Turning to `CC(C)(C)OC(=O)NC1CCCC(n2cnc3cnc4[nH]ccc4c32)C1` (single isomer, unassigned) [Example 475, [3-(6H-1,3,5,6-Tetraaza-as-indacen-1-yl)-cyclohexyl]-carbamic acid tert-butyl ester], the inhibition constant Ki at JAK3 was 21.9 nM; at TYK2, 2250 nM; at JAK2 it was 110 nM; at JAK1 it was 32.4 nM.

In the case of `CC(C)(C)OC(=O)NC1CCCC(n2cnc3cnc4[nH]ccc4c32)C1` (single isomer, unassigned) [Example 476, [3-(6H-1,3,5,6-Tetraaza-as-indacen-1-yl)-cyclohexyl]-carbamic acid tert-butyl ester], the Ki on JAK3 was determined as 68.4 nM; at TYK2, 302 nM; on JAK2 it was 29.1 nM; at JAK1, 12.3 nM.

Turning to `CC(C)(C)OC(=O)NC1CCCC(n2cnc3cnc4[nH]ccc4c32)C1` (single isomer, unassigned) [Example 477, [3-(6H-1,3,5,6-Tetraaza-as-indacen-1-yl)-cyclohexyl]-carbamic acid tert-butyl ester], the Ki on JAK3 came to 236 nM; on TYK2, 799 nM; on JAK2, 171 nM; at JAK1 it was 40.7 nM.

Turning to `CC(=O)NC1CCCC(n2cnc3cnc4[nH]ccc4c32)C1` (single isomer, unassigned) [Example 478, N-[3-(6H-1,3,5,6-Tetraaza-as-indacen-1-yl)-cyclohexyl]-acetamide], the Ki on JAK3 is 527 nM; on TYK2 it was 425 nM; at JAK2 it was 125 nM; on JAK1, 83.3 nM.
